Data as given in patent US9233109B2, “Compositions, methods of use, and methods of treatment” (UNIVERSITY OF FLORIDA RESEARCH FOUNDATION, INC., priority 2010, dated 2016).
Like-named read-outs stand apart in the source and are kept apart here. Each block holds one compound with its values, some of them ahead of it.

Columns and labels:
α7 nAChR [1] = target: T1, α7 nAChR (Homo sapiens, UniProt P36544); experiment: Bath application of test compound: modulation of ACh-evoked net charge responses in Xenopus oocytes; format: cell-based
T1 construct: expressed in transfected cells; host or cells: Xenopus laevis oocytes injected with cRNA
T1 sequence (P36544 23-502): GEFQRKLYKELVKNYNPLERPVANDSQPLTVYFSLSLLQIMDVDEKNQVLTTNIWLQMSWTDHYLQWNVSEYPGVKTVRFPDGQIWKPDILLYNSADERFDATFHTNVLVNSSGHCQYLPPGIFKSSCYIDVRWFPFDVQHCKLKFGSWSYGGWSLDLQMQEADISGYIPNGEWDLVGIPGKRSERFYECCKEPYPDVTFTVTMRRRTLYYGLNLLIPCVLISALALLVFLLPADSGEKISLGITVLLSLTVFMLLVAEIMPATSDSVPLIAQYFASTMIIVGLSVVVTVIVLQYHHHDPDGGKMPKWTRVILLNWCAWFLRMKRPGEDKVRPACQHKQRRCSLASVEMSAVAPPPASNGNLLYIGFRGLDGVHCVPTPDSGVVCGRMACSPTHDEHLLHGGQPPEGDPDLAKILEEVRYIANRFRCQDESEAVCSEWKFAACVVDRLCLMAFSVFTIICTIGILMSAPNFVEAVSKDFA
Experimental: (§1) We have extended this approach to defined receptor subtypes expressed in Xenopus oocytes. Experiments were conducted on cells expressing HS α4β2 (α4(2)β2(3)), LS α4β2 (α4(3)β2(2)), or α7 nAChR.
(§2) cDNA: Human nAChR receptor clones and concatamers were obtained from Dr. Jon Lindstrom (University of Pennsylvania, Philadelphia Pa.). The human RIC-3 clone, obtained from Dr. Millet Treinin (Hebrew University, Jerusalem Israel), was co-injected with α7 to improve the levels and speed of receptor expression.
(§3) Oocyte preparation: Oocytes were surgically removed from mature Xenopus laevis frogs and injected with 50 nl (5-20 ng) of appropriate nAChR subunit cRNAs as described previously (Horenstein et al., 2008).
(§4) Experiments were conducted using OpusXpress 6000A (Molecular Devices, Union City Calif.) and analyzed as described previously (Papke and Papke, 2002; Horenstein et al., 2008; Papke and Stokes, 2010).
(§5) Initial experiments were run for 50 minutes after the introduction of the experimental compounds into the bath.

α4β2α5 nAChR = target: T2, α4β2α5 nAChR (Homo sapiens, UniProt P17787+P30532+P43681); experiment: Bupropion co-applied with ACh: inhibition of ACh-evoked responses, oocytes; format: cell-based; details: co-applied with 3 μM ACh
T2 construct: expressed in transfected cells; host or cells: Xenopus laevis oocytes injected with cRNA
T2 sequence (P17787 26-502): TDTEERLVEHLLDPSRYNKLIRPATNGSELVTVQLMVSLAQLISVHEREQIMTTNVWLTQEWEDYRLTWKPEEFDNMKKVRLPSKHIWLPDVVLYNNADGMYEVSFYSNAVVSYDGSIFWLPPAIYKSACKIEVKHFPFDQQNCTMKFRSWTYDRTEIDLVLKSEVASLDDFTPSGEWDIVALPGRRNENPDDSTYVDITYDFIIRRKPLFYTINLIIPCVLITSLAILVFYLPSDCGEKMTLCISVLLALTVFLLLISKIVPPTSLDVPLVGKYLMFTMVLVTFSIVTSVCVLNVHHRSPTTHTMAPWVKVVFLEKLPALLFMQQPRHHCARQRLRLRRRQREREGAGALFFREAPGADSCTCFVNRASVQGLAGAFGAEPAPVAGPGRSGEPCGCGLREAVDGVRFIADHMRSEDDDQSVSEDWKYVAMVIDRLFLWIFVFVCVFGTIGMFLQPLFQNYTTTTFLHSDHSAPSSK
T2 sequence (P43681 29-627 limits assumed): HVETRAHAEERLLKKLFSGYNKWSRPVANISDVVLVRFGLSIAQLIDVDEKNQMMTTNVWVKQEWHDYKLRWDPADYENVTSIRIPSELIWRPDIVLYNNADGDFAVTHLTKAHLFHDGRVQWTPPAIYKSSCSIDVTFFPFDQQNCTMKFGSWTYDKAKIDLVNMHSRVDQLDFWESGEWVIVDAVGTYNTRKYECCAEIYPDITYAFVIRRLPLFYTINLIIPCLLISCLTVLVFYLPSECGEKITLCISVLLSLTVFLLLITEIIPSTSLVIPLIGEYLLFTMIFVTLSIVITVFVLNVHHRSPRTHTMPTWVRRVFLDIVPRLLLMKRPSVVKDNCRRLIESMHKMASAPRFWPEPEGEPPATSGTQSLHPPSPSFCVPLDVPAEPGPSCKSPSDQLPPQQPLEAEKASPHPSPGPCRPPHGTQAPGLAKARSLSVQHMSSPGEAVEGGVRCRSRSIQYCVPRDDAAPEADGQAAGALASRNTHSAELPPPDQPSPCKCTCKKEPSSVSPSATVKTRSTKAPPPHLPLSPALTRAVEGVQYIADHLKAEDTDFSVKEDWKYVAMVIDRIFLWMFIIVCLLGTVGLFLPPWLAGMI
T2 sequence (P30532 23-468): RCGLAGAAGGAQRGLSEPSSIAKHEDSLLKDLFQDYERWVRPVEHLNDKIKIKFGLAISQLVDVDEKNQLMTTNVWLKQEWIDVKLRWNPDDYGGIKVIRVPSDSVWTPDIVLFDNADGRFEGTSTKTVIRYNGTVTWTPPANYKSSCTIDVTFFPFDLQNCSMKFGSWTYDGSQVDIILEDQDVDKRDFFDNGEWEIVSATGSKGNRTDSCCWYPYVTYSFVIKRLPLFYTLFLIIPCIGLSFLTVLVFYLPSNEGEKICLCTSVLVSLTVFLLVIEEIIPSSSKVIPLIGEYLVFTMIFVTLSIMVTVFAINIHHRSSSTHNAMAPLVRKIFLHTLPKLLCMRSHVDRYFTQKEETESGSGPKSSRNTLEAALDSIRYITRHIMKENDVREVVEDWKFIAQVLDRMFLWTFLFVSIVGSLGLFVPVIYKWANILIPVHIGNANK

α4(3)β2(2) nAChR = target: T3, α4(3)β2(2) nAChR (Homo sapiens, UniProt P17787+P43681); experiment: as above; format: cell-based; details: co-applied with 30 μM ACh
T3 construct: expressed in transfected cells; host or cells: Xenopus laevis oocytes injected with cRNA
T3 sequence (P17787 26-502): as the sequence (P17787 26-502) above
T3 sequence (P43681 29-627 limits assumed): as the sequence (P43681 29-627 limits assumed) above
T3 sequence (P43681 29-627 limits assumed): as above
Experimental: as §5

α4(2)β2(3) nAChR = target: T4, α4(2)β2(3) nAChR (Homo sapiens, UniProt P17787+P43681); experiment: as above; format: cell-based; details: co-applied with 10 μM ACh
T4 construct: expressed in transfected cells; host or cells: Xenopus laevis oocytes injected with cRNA
T4 sequence (P17787 26-502): as the sequence (P17787 26-502) above
T4 sequence (P43681 29-627 limits assumed): as the sequence (P43681 29-627 limits assumed) above
T4 sequence (P17787 26-502): as the sequence (P17787 26-502) above
Experimental: as §5

α7 nAChR [2] = target: T1, α7 nAChR; experiment: as above; format: cell-based
Experimental: as §5

α4(2)β2(2)α5 nAChR = target: T5, α4(2)β2(2)α5 nAChR (Homo sapiens, UniProt P17787+P30532+P43681); experiment: Bath application of test compound: inhibition of ACh-evoked responses in Xenopus oocytes; format: cell-based
T5 construct: expressed in transfected cells; host or cells: Xenopus laevis oocytes injected with cRNA
T5 sequence (P17787 26-502): as above
T5 sequence (P43681 29-627 limits assumed): as the sequence (P43681 29-627 limits assumed) above
T5 sequence (P30532 23-468): as the sequence (P30532 23-468) above
Experimental: as §2, §3, §4, §5
Recently, attention has been drawn to α5 as a member of a gene cluster associated with high risk for cancer and heavy smoking (Saccone et al., 2007). In the periphery, α5 is most likely expressed in association with the other members of its gene cluster, α3 and β4.

[3] = system: α4(3)β2(2), α4(2)β2(3), α4(2)β2(2)α5 and α7 nAChR; experiment: Test of bupropion for receptor activation, oocytes; format: cell-based, human; details: 300 nM to 300 μM
[4] = target: T6, LS α4β2 (α4(3)β2(2)) nAChR (Homo sapiens, UniProt P17787+P43681); experiment: Bath application of test compound: inhibition of ACh-evoked peak currents in Xenopus oocytes; format: cell-based
T6 construct: expressed in transfected cells; host or cells: Xenopus laevis oocytes injected with cRNA
T6 sequence (P17787 26-502): as the sequence (P17787 26-502) above
T6 sequence (P43681 29-627 limits assumed): as the sequence (P43681 29-627 limits assumed) above
T6 sequence (P43681 29-627 limits assumed): as above
Experimental: as §1, §2, §3, §4, §5

[5] = target: T7, HS α4β2 (α4(2)β2(3)) nAChR (Homo sapiens, UniProt P17787+P43681); experiment: as above; format: cell-based
T7 construct: expressed in transfected cells; host or cells: Xenopus laevis oocytes injected with cRNA
T7 sequence (P17787 26-502): as the sequence (P17787 26-502) above
T7 sequence (P43681 29-627 limits assumed): as the sequence (P43681 29-627 limits assumed) above
T7 sequence (P17787 26-502): as the sequence (P17787 26-502) above
Experimental: as §1, §2, §3, §4, §5

[6] = preliminary findings of clinical trials, schizophrenics; cited from earlier work
human α7 receptors = human α7 receptors (Homo sapiens, UniProt P36544); details: cited from earlier work
human α7 receptors, sequence (P36544 23-502): as the sequence (P36544 23-502) above

α7 nAChR [7] = target: T1, α7 nAChR; experiment: Acute co-application of ACh and S 24795, model fit of net charge responses in oocytes; format: cell-based
Description: FIG. 2.1 illustrates a model applied to the activation of nAChR by simultaneous co-applications of the full agonist “a” and a partial agonist “p”. […] The IMax of the full agonist is assigned a value of 1. The first and second terms of the equation represent the activation produced by the full agonist and partial agonists, respectively, scaled by their potencies and weighted by receptor availability. The third term allows noncompetitive effects of the partial agonist. If such noncompetitive activity is inhibitory, then ni is assigned a negative value.
Acute responses to agonist/partial agonist applications were fit with a general non-linear regression model, implemented as an option in a Windows data analyses and graphical presentation program (CAS Data Forge). The terms na, np, ni, Rmaxp, Inmaxp, EC50a, EC50p, and IC50p were given starting estimates based on the data obtained with the drugs applied separately. Tolerance factor (typically 1×10^−5) range limits for each parameter were specified. […] A predicted matrix was then calculated for each cell of the matrix, based on the a and p concentrations, the set of parameters listed above, and the governing equation. The residuals across all cells were calculated, and an iterative process was utilized to revise the parameters to minimize the residuals and allow the estimates to be revised accordingly. When the difference of estimates for any given parameter for consecutive iterations fell below the tolerance factor, that parameter was fixed at the last estimate. When all parameters were fixed or no convergent solution was found, the process stopped, and the set of parameters representing the best fit along with the resulting matrix was provided.
The Imax for the full agonist was constrained to 1 while the Imax for the partial agonist was a free parameter <1.0.
Curve fit values for the drugs when applied alone were used as seeds for the competitive interactions.

[8] = system: α4(3)β2(2), α4(2)β2(3) and α7 nAChR; experiment: Baseline shifts / steady-state currents in the presence of bath-applied 3-pyr-Cyt, oocytes; format: cell-based, human; details: bath application
Experimental: FIG. 2.8 is a summary of the effects of bath-applied 3-pyr-Cyt on α4(3)β2(2) and α4(2)β2(3) and α7 nAChR. Bath application experiments were conducted as described for cytisine, varenicline, and nicotine.
One such compound is 3-(pyridin-3′-yl)-cytisine (3-pyr-Cyt), an agent proposed to have very little likelihood of off-target α7 activity (Mineur et al., 2009).

[9] = Example 1, average of 30-40 min time points, 60 μM ACh, net charge, read-out: IC50, inhibition of ACh-evoked responses by prolonged bath application
[10] = read-out: IC50, inhibition of ACh-evoked responses by prolonged bath application
[11] = noncompetitive inhibition factor
[12] = read-out: IC50 for the inhibition of ACh evoked responses by bath applications of agonists and partial agonists, Table 2, after 30±4 min bath application, 30 μM ACh
[13] = read-out: IC50 for the inhibition of ACh evoked responses by bath applications of agonists and partial agonists, Table 2, after 30±4 min bath application, 10 μM ACh

Bath application n (Hill slope of inhibition) (α7 nAChR [1]; 30 minutes in bath): −1.5 ± 0.5
IC50 (α7 nAChR [1]; 30 minutes in bath, read-out: Bath application IC50): 16 ± 3 µM
Co-application n (Hill slope of inhibition) (α4β2α5 nAChR): −0.70 ± 0.04
Co-application n (Hill slope of inhibition) (α4(3)β2(2) nAChR): −0.93 ± 0.11
Co-application n (Hill slope of inhibition) (α4(2)β2(3) nAChR): −0.80 ± 0.05
Co-application n (Hill slope of inhibition) (α7 nAChR [2]; co-applied with 60 μM ACh): −0.74 ± 0.09
IC50 (α7 nAChR [2]; read-out: Co-application IC50): 46 ± 7 µM
Bath application n (Hill slope of inhibition) (α4(2)β2(2)α5 nAChR; 30 minutes in bath): −0.47 ± 0.09
Bath application n (Hill slope of inhibition) ([4]; 30 minutes in bath): −1.2 ± 0.4
Bath application n (Hill slope of inhibition) ([5]; 30 minutes in bath): −0.40 ± 0.10
Structure (SMILES): CC(NC(C)(C)C)C(=O)c1cccc(Cl)c1 (stereo not drawn) [bupropion]
receptor activation by bupropion [3]: no activation above our level of detection

Structure (SMILES): COc1ccc(/C=C2\CCCN=C2c2cccnc2)c(OC)c1 [GTS-21, 3-(2,4-dimethoxybenzylidene)anabaseine]
IC50 (α7 nAChR [1]): 1.3 µM
IC50 (α7 nAChR [1]; [9]): 1.2 ± 0.4 µM
α7 ACh-evoked responses above the baseline controls (α7 nAChR [1]; bath application of 30 nM): 37±15%
bath concentrations at which α7 ACh-evoked responses were inhibited (α7 nAChR [1]; long-term bath application, net charge): greater than 300 nM
clinical ratings of negative symptoms [6]: improved clinical ratings of negative symptoms
EC50 (human α7 receptors; Papke and Papke, 2002, read-out: EC50 for transient receptor activation): ~6 µM
efficacy for human α7 receptors, % that of ACh (human α7 receptors): about 20%
IC50 [4, 10]: 1 ± 0.4 µM
IC50 [5, 10]: 0.17 ± 0.1 µM

Structure (SMILES): C[n+]1ccccc1CC(=O)c1ccc(Br)cc1 [S 24795, 2-[2-(4-bromophenyl)-2-oxoethyl]-1-methylpyridinium]
IC50 (α7 nAChR [1]; read-out: IC50 for the inhibition of ACh evoked responses by bath applications of agonists and partial agonists, Table 2, after 30±4 min bath application, 60 μM ACh, * = inhibition following a phase of potentiation): 15 µM
Activation n (Hill coefficient, best fit) (α7 nAChR [7]): 0.85
best fit IC50 relative to EC50 (higher) (α7 nAChR [7]): 70 fold
EC50 (α7 nAChR [7]; net charge, read-out: Activation EC50 (best fit)): 14 µM
Inhibition Inmax of the partial agonist (best fit) (α7 nAChR [7]; [11]): 1.0
Inhibition n (Hill coefficient, best fit) (α7 nAChR [7]; [11]): 0.26
IC50 (α7 nAChR [7]; noncompetitive inhibition factor, read-out: Inhibition IC50 of the partial agonist (best fit)): 1000 µM
Activation Rmax (best fit) (α7 nAChR [7]; relative to ACh maximum, ACh constrained to 1): 0.20
IC50 [4, 12]: 36 µM
IC50 [5, 13]: 53 µM

Structure (SMILES): O=c1c(-c2cccnc2)ccc2n1C[C@@H]1CNC[C@H]2C1 [3-pyr-Cyt, 3-(pyridin-3′-yl)-cytisine]
IC50 (α7 nAChR [1]; [9]): 103 ± 25 µM
concentration at which significant inhibition of α7-mediated responses was achieved (α7 nAChR [1]; highest concentration tested): 100 µM
baseline shifts or steady-state currents [8]: no baseline shifts or steady-state currents
IC50 (α4(2)β2(2)α5 nAChR; read-out: IC50 for the inhibition of ACh evoked responses by bath applications of agonists and partial agonists, Table 2, after 30±4 min bath application, 3 μM ACh): 2.3 µM
IC50 ([4]; Example 1, average of 30-40 min time points, 30 μM ACh, peak currents, read-out: IC50, inhibition of ACh-evoked responses by prolonged bath application): 5.4 ± 4 µM
IC50 [4, 12]: 16 µM
effect on ACh-evoked responses at low concentration ([5]; 30 nM in bath): partial inhibition
IC50 ([5]; Example 1, average of 30-40 min time points, 10 μM ACh, peak currents, read-out: IC50, inhibition of ACh-evoked responses by prolonged bath application): 0.653 ± 0.5 µM
IC50 [5, 13]: 0.6 ± 0.5 µM
